Experimental data from patent publication US12606541B2, “PPARg modulators and methods of use” (Eisai R&D Management Co., Ltd., priority 2020, dated 2026).
Like-named read-outs stand apart in the source and are kept apart here.

Molecular target: T1, His6-TEV-PPARγ-(234-505) (Homo sapiens, UniProt P37231)
T1 construct: The His6-TEV-PPARγ-(234-505) protein for assay was expressed and purified; TEV cleavage site (N); made in house
T1 sequence (P37231 234-505): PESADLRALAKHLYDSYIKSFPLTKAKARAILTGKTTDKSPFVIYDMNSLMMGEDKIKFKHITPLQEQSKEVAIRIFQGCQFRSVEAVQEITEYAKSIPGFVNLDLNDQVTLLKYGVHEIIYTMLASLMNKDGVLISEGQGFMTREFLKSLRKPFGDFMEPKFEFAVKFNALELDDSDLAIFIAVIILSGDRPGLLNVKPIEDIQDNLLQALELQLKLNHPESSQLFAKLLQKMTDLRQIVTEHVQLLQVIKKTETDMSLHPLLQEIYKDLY
Assay: TR-FRET Assay to Measure Co-R Peptide Recruitment to PPARγ
Format: biochemical
Description: TR-FRET Assay to Measure Co—R Peptide Recruitment to PPARγ
The 2× detection solution contained anti-6×His-Terbium antibody (CisBio) and FITC labeled Co—R peptide (SMRT-ID2 from New England Peptide) at final concentrations of 5 and 200 nM respectively.
In these assay plates, the positive control in column 24 contained 500 nM (final) T0070907 and the negative control in column 23 contained an identical volume of DMSO. Then, 5 μL of 2+ protein working stock or controls were added to the plate and incubated for 20 minutes at room temperature. Reagents additions were performed with either a Combi (Thermo) or Mantis (Formulatory) pipetting device. The incubation was followed by addition of 5 μL of the 2× detection solution. Plates were covered, centrifuged, and incubated for an additional hour. The TR-FRET data was recorded with an Envision plate reader (Perkin Elmer), using settings recommended by Thermo Fisher. The TR-FRET signal of the positive and negative control's recruitment of FITC-Co—R peptide was used to normalize the TR-FRET signal to percent response and to determine the assay Z prime. Experiments were performed in triplicate and analyzed in GraphPad Prism 7.

[1] = Co-R peptide recruitment to PPARγ, read-out: TR-FRET AC50
[2] = Co-R peptide (SMRT-ID2) recruitment, top final concentration 20 μM, read-out: TR-FRET i-Ag, AC50

SMILES | AC50 [1] | AC50 [2]
C[C@H]1CC[C@H](NC(=O)C2CCN(C(=O)c3cc(-c4cccnc4)n[nH]3)CC2)CC1 | > 1000 nM | 
CCC1CCC(NC(=O)C2CCN(C(=O)c3cc(-c4ccnc(OC)c4)[nH]n3)CC2)CC1 (stereo not drawn) | > 1000 nM | 
COc1cc(-c2cc(C(=O)N3CCC(C(=O)N[C@H]4CC[C@H](C)CC4)CC3)n[nH]2)ccn1 | > 1000 nM | 
COc1cc(-c2cc(C(=O)N3CCC(C(=O)N[C@H]4CC[C@](O)(C(F)(F)F)CC4)CC3)n[nH]2)c(Cl)cn1 | > 1000 nM | 
COc1cc(-c2cc(C(=O)N3CCC(C(=O)NC4CCC(C)(O)CC4)CC3)n[nH]2)c(Cl)cn1 (stereo not drawn) | > 1000 nM | 
COc1cc(-c2cc(C(=O)N3CCC(C(=O)NC45COC(C)(C4)C5)CC3)n[nH]2)c(Cl)cn1 | > 1000 nM | 
COc1cc(-c2cc(C(=O)N3CCC(C(=O)N[C@H]4CC[C@@](C)(O)CC4)CC3)n[nH]2)c(Cl)cn1 | > 1000 nM | 
COc1cc(-c2cc(C(=O)N3CCC(C(=O)NC(C)c4cnn(C)c4)CC3)n[nH]2)c(Cl)cn1 (stereo not drawn) | > 1000 nM | 
COc1cc(-c2cc(C(=O)N3CCC(C(=O)NC45CCC(O)(CC4)C5)CC3)n[nH]2)c(F)cn1 | > 1000 nM | 
COc1cc(-c2cc(C(=O)N3CCC(C(=O)NC4CCC5(CCCN5)CC4)CC3)n[nH]2)c(F)cn1 (stereo not drawn) | > 1000 nM | 
O=C(N[C@H]1CC[C@H](O)CC1)C1CCN(C(=O)c2cc(-c3ccncc3)[nH]n2)CC1 | > 1000 nM | 
C[C@H]1CC[C@H](NC(=O)C2CCN(C(=O)c3cc(-c4ccncc4)[nH]n3)CC2)CC1 | > 1000 nM | 
CCC1CCC(NC(=O)C2CCN(C(=O)c3cc(-c4ccncc4)[nH]n3)CC2)CC1 (stereo not drawn) | > 1000 nM | 
O=C(NC1CCC(O)CC1)C1CCN(C(=O)c2cc(-c3ccncc3)[nH]n2)CC1 (stereo not drawn) | > 1000 nM | 
N#C[C@H]1CC[C@@H](NC(=O)C2CCN(C(=O)c3cc(-c4ccncc4)[nH]n3)CC2)CC1 | > 1000 nM | 
C[C@H]1CC[C@@H](NC(=O)C2CCN(C(=O)c3cc(-c4ccncc4)[nH]n3)CC2)CC1 | > 1000 nM | 
CN1CCN(C(=O)C2CCN(C(=O)c3cc(-c4ccncc4)[nH]n3)CC2)CC1 | > 1000 nM | 
CN1CCCN(C(=O)C2CCN(C(=O)c3cc(-c4ccncc4)[nH]n3)CC2)CC1 | > 1000 nM | 
CC1CCC(NC(=O)C2CCN(C(=O)c3cc(-c4ccnc(C(=O)O)c4)[nH]n3)CC2)CC1 (stereo not drawn) | > 1000 nM | 
O=C(N[C@H]1CC[C@@](O)(C(F)(F)F)CC1)C1CCN(C(=O)c2cc(-c3cc(OC4COC4)ncc3F)[nH]n2)C2(CC2)C1 (stereo partly drawn) | > 1000 nM | 
COc1cc(-c2cc(C(=O)N3CC4CC3CC4C(=O)NC3CCC(O)(C(F)(F)F)CC3)n[nH]2)c(F)cn1 (stereo not drawn) | > 1000 nM | 
COc1cc(-c2cc(C(=O)N3C[C@@H]4[C@H](C3)[C@H]4C(=O)NCc3cccc(Cl)c3)n[nH]2)c(F)cn1 | > 1000 nM | 
COc1cc(-c2cc(C(=O)N3CC[C@H](CNC(=O)[C@H]4C[C@@H](C)N[C@@H](C)C4)CC34CC4)n[nH]2)c(F)cn1 | > 1000 nM | 

SMILES | AC50 [1] | AC50 [2]
COc1cc(-c2cc(C(=O)N3CC[C@H](C(=O)NCC45CC(CN4CC(C)(C)F)C5)CC34CC4)n[nH]2)c(F)cn1 | > 1000 nM | 
COc1cc(-c2cc(C(=O)N3CC[C@H](C(=O)NC4CCS(=N)(=O)CC4)CC34CC4)n[nH]2)c(F)cn1 (stereo partly drawn) | > 1000 nM | 
O=C(N[C@H]1CC[C@H](c2ccccc2)CC1)C1CCN(C(=O)c2cc(-c3ccncc3)[nH]n2)CC1 | > 1000 nM | 
COc1cc(-c2cc(C(=O)N3CC[C@@H](C(=O)NC4CC[C@H](C(F)(F)F)N(C)C4)CC34CC4)n[nH]2)c(F)cn1 (mixture of isomers) [(7R)-4-[5-(5-fluoro-2-methoxypyridin-4-yl)-1H-pyrazole-3-carbonyl]-N-[(3RS,6R)-1-methyl-6-(trifluoromethyl)piperidin-3-yl]-4-azaspiro[2.5]octane-7-carboxamide] | > 1000 nM | 
CC1CCC(NC(=O)C2CCN(C(=O)c3cc(-c4ccncc4Cl)[nH]n3)CC2)CC1 (mixture of isomers) [Example 109, 1-(5-(3-chloropyridin-4-yl)-1H-pyrazole-3-carbonyl)-N-(4-methylcyclohexyl)piperidine-4-carboxamide] |  | 373 nM
COc1cc(-c2cc(C(=O)N3C(C)CC(C(=O)NCc4cccc(Cl)c4)CC3C)n[nH]2)c(Cl)cn1 (mixture of isomers) [Example 274, 1-(5-(5-chloro-2-methoxypyridin-4-yl)-1H-pyrazole-3-carbonyl)-N-(3-chlorobenzyl)-2,6-dimethylpiperidine-4-carboxamide] |  | 20 nM
COc1cc(-c2cc(C(=O)N3C[C@H]4CC[C@@H]3CC4C(=O)NCc3cccc(Cl)c3)n[nH]2)c(F)cn1 (relative stereo) [(1R,4S,5R*)—N-[(3-chlorophenyl)methyl]-2-[5-(5-fluoro-2-methoxypyridin-4-yl)-1H-pyrazole-3-carbonyl]-2-azabicyclo[2.2.2]octane-5-carboxamide] | > 1000 nM | 
COc1cc(-c2cc(C(=O)N3C[C@@H]4C[C@H]3CC4C(=O)NCc3cccc(Cl)c3)n[nH]2)c(F)cn1 (relative stereo) [(1S,4R,5R*)—N-[(3-chlorophenyl)methyl]-2-[5-(5-fluoro-2-methoxypyridin-4-yl)-1H-pyrazole-3-carbonyl]-2-azabicyclo[2.2.1]heptane-5-carboxamide] | > 1000 nM | 
COc1cc(-c2cc(C(=O)N3CCC(C(=O)NC4CC[C@H]5[C@H](CCN5C)C4)CC34CC4)n[nH]2)c(F)cn1 (relative stereo) [(7R*)—N-[(3aR,7aS)-1-methyl-octahydro-1H-indol-5-yl]-4-[5-(5-fluoro-2-methoxypyridin-4-yl)-1H-pyrazole-3-carbonyl]-4-azaspiro[2.5]octane-7-carboxamide] | > 1000 nM | 
COc1cc(-c2cc(C(=O)N3CC[C@@]4(C(=O)NCc5cccc(Cl)c5)C[C@@H]34)n[nH]2)c(Cl)cn1 (relative stereo) [rel-(1R,5R)-2-[5-(5-chloro-2-methoxypyridin-4-yl)-1H-pyrazole-3-carbonyl]-N-[(3-chlorophenyl)methyl]-2-azabicyclo[3.1.0]hexane-5-carboxamide] | > 1000 nM | 
CCOc1cc(-c2cc(C(=O)N3CCC(C(=O)N[C@H]4CC[C@@](O)(C(F)(F)F)CC4)CC34CC4)n[nH]2)c(F)cn1 (single isomer, unassigned) | > 1000 nM | 
COc1cc(-c2cc(C(=O)N3C[C@H]4C[C@@H]3CC4C(=O)N[C@H]3CC[C@@](O)(C(F)(F)F)CC3)n[nH]2)c(F)cn1 (single isomer, unassigned) | > 1000 nM | 
CCOc1cc(-c2cc(C(=O)N3CCC(C(=O)N[C@H]4CC[C@@](OC)(C(F)(F)F)CC4)CC34CC4)n[nH]2)c(F)cn1 (single isomer, unassigned) | > 1000 nM | 
Cc1cc(-c2cc(C(=O)N3CCC(C(=O)N[C@H]4CC[C@@](O)(C(F)(F)F)CC4)CC34CC4)n[nH]2)c([C@@H](C)O)cn1 (single isomer, unassigned) | > 1000 nM | 
Cc1cc(-c2cc(C(=O)N3CCC(C(=O)N[C@H]4CC[C@@](O)(C(F)(F)F)CC4)CC34CC4)n[nH]2)c([C@H](C)O)cn1 (single isomer, unassigned) | > 1000 nM | 
CC(C)Oc1cc(-c2cc(C(=O)N3CCC(C(=O)N[C@H]4CC[C@@](O)(C(F)(F)F)CC4)CC34CC4)n[nH]2)c(F)cn1 (single isomer, unassigned) | > 1000 nM | 
COc1cc(-c2cc(C(=O)N3CCC(C(=O)N[C@H]4CC[C@@]5(CCO5)CC4)CC34CC4)n[nH]2)c(F)cn1 (single isomer, unassigned) | > 1000 nM | 
CS(=O)(=O)CCN1CCN(C(=O)C2CCN(C(=O)c3cc(-c4ccncc4)[nH]n3)CC2)CC1 [1-(2-methanesulfonylethyl)-4-{1-[5-(pyridin-4-yl)-1H-pyrazole-3-carbonyl]piperidine-4-carbonyl}piperazine] | > 1000 nM | 
CC1CCC(NC(=O)C2CCN(C(=O)c3cc(-c4ccnc(C#N)c4)[nH]n3)CC2)CC1 (stereo not drawn) [1-[5-(2-cyanopyridin-4-yl)-1H-pyrazole-3-carbonyl]-N-(4-methylcyclohexyl)piperidine-4-carboxamide] | > 1000 nM | 
CC1CCC(NC(=O)C2CCN(C(=O)c3cc(-c4ccnc(OC5CC5)c4)[nH]n3)CC2)CC1 (stereo not drawn) [1-[5-(2-cyclopropoxypyridin-4-yl)-1H-pyrazole-3-carbonyl]-N-(4-methylcyclohexyl)piperidine-4-carboxamide] | > 1000 nM | 
CC1CCC(NC(=O)C2CCN(C(=O)c3cc(-c4ccnc(C5CC5)c4)[nH]n3)CC2)CC1 (stereo not drawn) [1-[5-(2-cyclopropylpyridin-4-yl)-1H-pyrazole-3-carbonyl]-N-(4-methylcyclohexyl)piperidine-4-carboxamide] | > 1000 nM | 
COc1nccc(-c2cc(C(=O)N3CCC(C(=O)NC4CCC(C)CC4)CC3)n[nH]2)c1C (stereo not drawn) [1-[5-(2-methoxy-3-methylpyridin-4-yl)-1H-pyrazole-3-carbonyl]-N-(4-methylcyclohexyl)piperidine-4-carboxamide] | > 1000 nM | 
